Results from ChEMBL document CHEMBL1122675, “Topical carbonic anhydrase inhibitors” (J Med Chem, 1984).
In brackets after ≈: the same amount, converted by molar mass.

How the values were obtained:
[1] = Acid dissociation constant was determined.; assay type: ADME
[2] = Compound was tested for Octanol / pH 7.2 phosphate buffer distribution coefficient (N=2-3); assay type: physicochemical
[3] = Solubility at a pH 7.2 phosphate buffer, 37 degrees celsius (N=6); assay type: physicochemical
[4] = molecular target: Carbonic anhydrase (Homo sapiens) (UniProt P00918+P43166+P00915+P07451+P23280+O43570+Q9ULX7+Q16790+P22748+Q8N1Q1+Q9Y2D0+P35218)
Description: Compound was tested for relative in vitro carbonic anhydrase activity from human red blood cell.

[5] = Corneal permeability coefficient was determined; assay type: ADME
[6] = phosphate buffer, read-out: Solubility

Row | pKa [1] | pKa ([1]; read-out: pKa) | logD [2] | solubility ([3]; buffer) [µg/mL] | solubility [3, 6] [µg/mL] | CAI activity [4] | Permeability coefficient [5] [×10⁻⁶ cm/s] | SMILES
1 | 9.26 | 7.81 | 1.12 | 1560 (≈ 6770 µM) | – | – | – | NS(=O)(=O)c1nc2ccc(O)cc2s1
2 | – | 7.72 | 2.1 | – | 607 (≈ 2440 µM) | 1.23 | – | NS(=O)(=O)c1nc2ccc(Cl)cc2s1
3 | – | 7.9 | 1.33 | 1021 (≈ 4760 µM) | – | – | 36.2 | NS(=O)(=O)c1nc2ccccc2s1
4 | – | 9.1 | 2.59 | – | 64 (≈ 235 µM) | 0.0064 | – | CCOc1ccc2nc(S(=O)(=O)NC)sc2c1
5 | – | 2.95 | -1.02 | – | 11500 (≈ 38300 µM) | 0.0041 | – | CCOc1ccc2nc(S(=O)(=O)NC(C)=O)sc2c1
6 | – | – | 2.06 | – | 60 (≈ 232 µM) | – | 43.9 | CCOc1ccc2nc(S(N)(=O)=O)sc2c1 [ETHOXZOLAMIDE]
